Consider one substance from paper PMC9016803, “Mitochondria-targeted half-sandwich iridium(III)-Cp*-arylimidazophenanthroline complexes as antiproliferative and bioimaging agents against triple negative breast cancer cells MDA-MB-468” (RSC Advances, 2022).

Series [1] concerns immortalized human keratinocyte cell line HaCaT. In words: MTT in vitro cytotoxicity assay, normal cells. Format: cell-based. The settings on record: 48 h. The procedure: Consequently, the IrL1 complex doses of 1 μM, 3 μM and 5 μM were selected for further experimental analysis. Furthermore, the possible cytotoxic effects of IrL1 on normal cell line were also examined on the immortalized human keratinocyte cell line HaCaT.
Cytotoxicity study of all the synthesized compounds against triple negative breast cancer cells MDA-MB-468 and immortalized human keratinocyte cell line HaCaT were done with a drug incubation period of 48 h by following standard procedure that were mentioned in ESI. ^† Preliminary studies were done to understand the mode of action of the complex to induce cytotoxicity using flow cytometric methods. […]
(§1) In vitro cytotoxicity study was measured by standard MTT assay protocol.1 First the prepared complexes (IrL1-IrL5) were dissolved in 0.1% DMSO followed by dilution with DMEM medium. […] Then the resultant suspension was kept on micro vibrator for 10 min and the absorbance was recorded at λ = 570 nm in ELISA plate reader. […] The data were represented as the growth inhibition percentage i.e. % growth inhibition = 100 − [(AD × 100)/AB], where AD, measured absorbance in wells which contain samples and AB, measured absorbance for blank wells (cells with a medium and a vehicle). […]

The target of series [2] is T1, BSA (Bos taurus, UniProt P02769).
T1 construct: purchased Sigma Aldrich Chemical Limited
In words: BSA binding, tryptophan emission quenching. More on the design: species or system bovine. On the procedure:
Upon excitation at 295 nm, the emission intensity of BSA at λem = 350 nm decreased gradually on increasing the complex concentration, which confirmed that the interaction between complex IrL1 with BSA had occurred, as observed in Fig. 8. The Stern–Volmer quenching constant of these complexes with BSA (KBSA) was calculated using the Stern–Volmer equation and the corresponding Stern–Volmer plots (Fig. 8, inset). The binding affinity (K) of the complexes was calculated from Scatchard plot analysis (Fig. 8, inset). […]
Kapp × [Complex]50 = kEtBr × [EtBr]⋯⋯⋯(iii) […]
Stern-Volmer equation was followed for quantitative determination of the Stern-Volmer quenching constant (K SV).5 Origin (8.5) software was used to plot the fluorescence data to obtain linear plot of I0/I vs. [complex]. The value of KSV was calculated from the following […]
Where I0 = fluorescence intensity in absence of complex and I = fluorescence intensities in presence of complex of concentration [Q].
We are acquainted with the fact that serum albumin proteins are the main component. […] After each addition, the solutions were shaken slowly for 5 min before recording the fluorescence at a wavelength of 295 nm (λex = 295 nm). A gradual decrease in fluorescence intensity of BSA at λ = 340 nm was observed upon increasing the concentration of complex, which confirmed […]
that the interaction between the complex and BSA was happened. Stern-Volmer equation was employed to quantitatively determine the quenching constant (K BSA). […]
Where I0 is the fluorescence intensity of BSA in absence of complex and I indicates the fluorescence intensity of BSA in presence of complex of concentration [Q], τ0 = lifetime of the tryptophan in BSA found as 1 x 10-8 and kq is the quenching constant. […]
To allow the phase separation, the solution was centrifuged for 10 min at 3000 rpm. […] Aliquots of the aqueous and octanol layers were pipetted out separately and the absorbances were measured with UV-Vis spectrophotometer using proper dilution. […]

A short description of series [3]: Stability study by time-dependent UV-vis spectroscopy. The class given is physicochemical. The procedure: The stability studies of complex IrL1 were conducted in […] different solvents, i.e. aqueous DMSO (H2O : DMSO = 9 : 1) and aqueous GSH medium (Fig. 3) respectively in presence or absence of different concentrations of NaCl. It is essential that the complexes remain stable in the biological environments of cells, and thus the stability studies were performed. […] It has been reported that many cancer cells become resistant to various drugs by increasing their cellular glutathione level.[28]
For doing the cell culture the cells were retained in DMEM media (Gibco), added with 10% fetal bovine serum (Himedia, India), 1% penicillin and streptomycin and 1% of Glutmax (Gibco, Thermo Scientific, USA) at 37°C in 5% CO2. […]
as §1

T1 sequence (P02769 25-607): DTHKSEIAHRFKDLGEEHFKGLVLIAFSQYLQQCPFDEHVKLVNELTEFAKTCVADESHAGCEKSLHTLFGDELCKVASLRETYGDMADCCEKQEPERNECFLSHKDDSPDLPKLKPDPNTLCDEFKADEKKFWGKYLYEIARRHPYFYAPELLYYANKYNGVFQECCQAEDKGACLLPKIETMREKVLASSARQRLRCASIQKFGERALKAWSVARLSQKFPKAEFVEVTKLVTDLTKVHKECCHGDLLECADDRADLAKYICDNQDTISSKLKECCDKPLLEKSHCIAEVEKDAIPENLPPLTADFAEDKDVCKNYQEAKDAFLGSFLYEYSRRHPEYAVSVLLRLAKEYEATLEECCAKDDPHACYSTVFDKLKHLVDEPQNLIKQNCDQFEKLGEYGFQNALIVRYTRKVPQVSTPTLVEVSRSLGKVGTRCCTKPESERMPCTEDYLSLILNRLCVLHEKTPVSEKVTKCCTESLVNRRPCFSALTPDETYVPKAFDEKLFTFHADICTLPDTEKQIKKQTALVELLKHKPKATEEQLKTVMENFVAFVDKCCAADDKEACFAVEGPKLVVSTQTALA

For “[Iridium(III)-Cp*-2-(naphthalen-1-yl)-1H-imidazo[4,5-f][1,10]phenanthroline]PF6 [IrL1]”, in series [1], half-maximal inhibition (IC50) was put at 11.4 µM. Also, the “K, binding affinity (Scatchard plot)” value in series [2] (BSA) was 6.3e+06 M⁻¹. Further, the “kq, bimolecular quenching constant” value in series [2] (calculated from KSV and τ0 (1 × 10^−8 s)) is reported as 5 × 10^12 M^−1 S^−1. For the same substance, in series [2] (excitation 295 nm), the “KBSA, Stern–Volmer quenching constant with BSA” value turned out to be 50000 M⁻¹. The decrease in absorbance in series [3] (aqueous DMSO (H2O : DMSO = 9 : 1), after 24 h) is 15–30%. In series [3] (excess (10 eq.) glutathione, time-dependent UV spectroscopy), the “effect of GSH on stability” value is on record as “GSH didn't have much impact on the stability”.
